SMILES strings stand for the structures. *1 amine or outer side, *2 acyl side, *3 side chain or, on linkers, in order; H or OH if unused. Where a SMILES comes first, the peptide text is derived from it. [ ]: non-standard residue; d: D form. Trp(4-Cl)(βS-Me) = C[C@@H](c1c[nH]c2cccc(Cl)c12)[C@H](N)C(=O)O; Trp(βS-Me,4-F) = C[C@@H](c1c[nH]c2cccc(F)c12)[C@H](N)C(=O)O; Bip(4'-COOH) = N[C@@H](Cc1ccc(-c2ccc(C(=O)O)cc2)cc1)C(=O)O; Phe(4-COOH) = N[C@@H](Cc1ccc(C(=O)O)cc1)C(=O)O; h3Pal(5-CN) = N#Cc1cncc(CC[C@H](N)C(=O)O)c1; Pro(4R-NH2) = N[C@H]1CN[C@H](C(=O)O)C1; X7 = O=C([C@H](CCN1CCOCC1)N[*:1])[*:2]; 1Nal = N[C@@H](Cc1cccc2ccccc12)C(=O)O; AEF = NCCOc1ccc(C[C@H](N)C(=O)O)cc1; hTyr = N[C@@H](CCc1ccc(O)cc1)C(=O)O; hPhe = N[C@@H](CCc1ccccc1)C(=O)O; 4Pal = N[C@@H](Cc1ccncc1)C(=O)O; dDab = NCC[C@@H](N)C(=O)O; dNMeA = CN[C@H](C)C(=O)O; Dab = NCC[C@H](N)C(=O)O; Nva = CCC[C@H](N)C(=O)O

As usually defined, the IC50 is the concentration that gives 50% inhibition.

In the first series the target is T1, Recombinant human IL-1β (Homo sapiens, UniProt P01584).
T1 construct: purchased BioLegend 579404
T1 sequence (P01584 117-269): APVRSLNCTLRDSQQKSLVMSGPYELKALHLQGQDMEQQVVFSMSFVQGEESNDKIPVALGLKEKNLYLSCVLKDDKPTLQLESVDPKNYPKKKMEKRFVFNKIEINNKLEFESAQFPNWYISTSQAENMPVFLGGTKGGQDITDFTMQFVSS
Kind of series: IL-6 assay in MRC5 cells: inhibition of IL-1β induced IL-6 secretion (AlphaLISA).
Conditions: not given
The series is classed as cell-based. The method in brief:
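IL-1β at 2×EC80 in seeding medium (EMEM, 0.025% BSA) preincubated 1 h at ambient temperature with compound, then 3000 MRC5 cells/well added and incubated overnight at 37 °C, 5% CO2. IL-6 in conditioned medium quantified by AlphaLISA; IC50 from 4-parameter logistic fit.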
In the case of `CC(=O)NCCOc1ccc(C[C@@H]2NC(=O)[C@H](Cc3ccc(OCCN)cc3)NC(=O)[C@@H](C)NC(=O)[C@H](CC(C)C)NC(=O)[C@H](Cc3c[nH]c4ccccc34)NC(=O)[C@H](Cc3ccc(-c4ccc(C(=O)O)cc4)cc3)NC(=O)CNC(=O)[C@@H](C)N(C)C(=O)[C@H](CC(=O)O)NC(=O)[C@H]([C@@H](C)c3c[nH]c4cccc(F)c34)NC(=O)[C@@H]3C[C@@H](N)CN3C(=O)CNC(=O)[C@H](Cc3ccc(C(=O)O)cc3)NC(=O)[C@H](Cc3c[nH]c4ccccc34)NC2=O)cc1` [Example 164] (cyclo([AEF][AEF](Ac)W[Phe(4-COOH)]G[Pro(4R-NH2)][Trp(βS-Me,4-F)]D[dNMeA]G[Bip(4'-COOH)]WL[dA])), the IC50 is 0.459 nM.

The series is the same for the next values; noted with them: inhibition of IL-1β induced IL-6 secretion in MRC5 cells; read-out: MRC5 IC50.
Take `CC(=O)NCCOc1ccc(C[C@@H]2NC(=O)[C@H](CCc3ccc(O)cc3)NC(=O)[C@@H](C)NC(=O)[C@H](CO)NC(=O)[C@H](Cc3c[nH]c4ccccc34)NC(=O)[C@H](Cc3ccc(-c4ccc(C(=O)O)cc4)cc3)NC(=O)CNC(=O)[C@@H](C)N(C)C(=O)[C@H](CC(=O)O)NC(=O)[C@H]([C@@H](C)c3c[nH]c4cccc(Cl)c34)NC(=O)[C@@H]3C[C@@H](N)CN3C(=O)CNC(=O)[C@H](Cc3ccc(C(=O)O)cc3)NC(=O)[C@H](Cc3c[nH]c4ccccc34)NC2=O)cc1` [Example 151] (cyclo([AEF](Ac)W[Phe(4-COOH)]G[Pro(4R-NH2)][Trp(4-Cl)(βS-Me)]D[dNMeA]G[Bip(4'-COOH)]WS[dA][hTyr])): the IC50 amounted to 0.0759 nM.

In the case of `COC[C@@H]1NC(=O)[C@H](Cc2c[nH]c3ccccc23)NC(=O)[C@H](Cc2ccc(-c3ccc(C(=O)O)cc3)cc2)NC(=O)CNC(=O)[C@@H](C)N(C)C(=O)[C@H](CC(=O)O)NC(=O)[C@H]([C@@H](C)c2c[nH]c3cccc(Cl)c23)NC(=O)[C@@H]2C[C@@H](N)CN2C(=O)CNC(=O)[C@H](Cc2ccc(C(=O)O)cc2)NC(=O)[C@H](Cc2c[nH]c3ccccc23)NC(=O)[C@H](Cc2ccc(OCCNC(C)=O)cc2)NC(=O)[C@H](CCc2ccccc2)NC(=O)[C@@H](C)NC1=O` [Example 152] (cyclo([AEF](Ac)W[Phe(4-COOH)]G[Pro(4R-NH2)][Trp(4-Cl)(βS-Me)]D[dNMeA]G[Bip(4'-COOH)]WS(Me)[dA][hPhe])), the IC50 was 0.06 nM.

`COC[C@@H]1NC(=O)[C@H](Cc2c[nH]c3ccccc23)NC(=O)[C@H](Cc2ccc(-c3ccc(C(=O)O)cc3)cc2)NC(=O)CNC(=O)[C@@H](C)N(C)C(=O)[C@H](CC(=O)O)NC(=O)[C@H]([C@@H](C)c2c[nH]c3cccc(Cl)c23)NC(=O)[C@@H]2C[C@@H](N)CN2C(=O)CNC(=O)[C@H](Cc2ccc(C(=O)O)cc2)NC(=O)[C@H](Cc2c[nH]c3ccccc23)NC(=O)[C@H](Cc2ccc(OCCNC(C)=O)cc2)NC(=O)[C@H](CCc2ccc(O)cc2)NC(=O)[C@@H](C)NC1=O` [Example 153] (cyclo([AEF](Ac)W[Phe(4-COOH)]G[Pro(4R-NH2)][Trp(4-Cl)(βS-Me)]D[dNMeA]G[Bip(4'-COOH)]WS(Me)[dA][hTyr])): the IC50 worked out at 0.088 nM.

Turning to `CC(=O)NCCOc1ccc(C[C@@H]2NC(=O)[C@H](CCc3ccc(O)cc3)NC(=O)[C@@H](C)NC(=O)[C@H](CCN)NC(=O)[C@H](Cc3cccc4ccccc34)NC(=O)[C@H](Cc3ccc(-c4ccc(C(=O)O)cc4)cc3)NC(=O)CNC(=O)[C@@H](C)N(C)C(=O)[C@H](CC(=O)O)NC(=O)[C@H]([C@@H](C)c3c[nH]c4cccc(F)c34)NC(=O)[C@@H]3C[C@@H](N)CN3C(=O)CNC(=O)[C@H](Cc3ccc(C(=O)O)cc3)NC(=O)[C@H](Cc3c[nH]c4ccccc34)NC2=O)cc1` [Example 154] (cyclo([AEF](Ac)W[Phe(4-COOH)]G[Pro(4R-NH2)][Trp(βS-Me,4-F)]D[dNMeA]G[Bip(4'-COOH)][1Nal][Dab][dA][hTyr])), the IC50 amounted to 0.196 nM.

In the case of `CC(=O)NCCOc1ccc(C[C@@H]2NC(=O)[C@H](CCc3ccc(O)cc3)NC(=O)[C@@H](C)NC(=O)[C@H](CO)NC(=O)[C@H](Cc3cccc4ccccc34)NC(=O)[C@H](Cc3ccc(-c4ccc(C(=O)O)cc4)cc3)NC(=O)CNC(=O)[C@@H](C)N(C)C(=O)[C@H](CC(=O)O)NC(=O)[C@H]([C@@H](C)c3c[nH]c4cccc(F)c34)NC(=O)[C@@H]3C[C@@H](N)CN3C(=O)CNC(=O)[C@H](Cc3ccc(C(=O)O)cc3)NC(=O)[C@H](Cc3c[nH]c4ccccc34)NC2=O)cc1` [Example 155] (cyclo([AEF](Ac)W[Phe(4-COOH)]G[Pro(4R-NH2)][Trp(βS-Me,4-F)]D[dNMeA]G[Bip(4'-COOH)][1Nal]S[dA][hTyr])), the IC50 came out at 0.22 nM.

As for `CC(=O)NCCOc1ccc(C[C@@H]2NC(=O)[C@H](CCc3ccc(O)cc3)NC(=O)[C@@H](C)NC(=O)[C@H](CC(C)C)NC(=O)[C@H](Cc3ccncc3)NC(=O)[C@H](Cc3ccc(-c4ccc(C(=O)O)cc4)cc3)NC(=O)CNC(=O)[C@@H](C)N(C)C(=O)[C@H](CC(=O)O)NC(=O)[C@H]([C@@H](C)c3c[nH]c4cccc(F)c34)NC(=O)[C@@H]3C[C@@H](N)CN3C(=O)CNC(=O)[C@H](Cc3ccc(C(=O)O)cc3)NC(=O)[C@H](Cc3c[nH]c4ccccc34)NC2=O)cc1` [Example 156] (cyclo([AEF](Ac)W[Phe(4-COOH)]G[Pro(4R-NH2)][Trp(βS-Me,4-F)]D[dNMeA]G[Bip(4'-COOH)][4Pal]L[dA][hTyr])), the IC50 is 0.948 nM.

As to `CCC[C@@H]1NC(=O)[C@H](Cc2ccncc2)NC(=O)[C@H](Cc2ccc(-c3ccc(C(=O)O)cc3)cc2)NC(=O)CNC(=O)[C@@H](C)N(C)C(=O)[C@H](CC(=O)O)NC(=O)[C@H]([C@@H](C)c2c[nH]c3cccc(F)c23)NC(=O)[C@@H]2C[C@@H](N)CN2C(=O)CNC(=O)[C@H](Cc2ccc(C(=O)O)cc2)NC(=O)[C@H](Cc2c[nH]c3ccccc23)NC(=O)[C@H](Cc2ccc(OCCNC(C)=O)cc2)NC(=O)[C@H](CCc2ccc(O)cc2)NC(=O)[C@@H](C)NC1=O` [Example 157] (cyclo([AEF](Ac)W[Phe(4-COOH)]G[Pro(4R-NH2)][Trp(βS-Me,4-F)]D[dNMeA]G[Bip(4'-COOH)][4Pal][Nva][dA][hTyr])), the IC50 was 0.403 nM.

`CC(=O)NCCOc1ccc(C[C@@H]2NC(=O)[C@H](CCc3cncc(C#N)c3)NC(=O)[C@@H](C)NC(=O)[C@H](CC(C)C)NC(=O)[C@H](CCCCN)NC(=O)[C@H](Cc3ccc(-c4ccc(C(=O)O)cc4)cc3)NC(=O)CNC(=O)[C@@H](C)N(C)C(=O)[C@H](CC(=O)O)NC(=O)[C@H]([C@@H](C)c3c[nH]c4cccc(F)c34)NC(=O)[C@@H]3C[C@@H](N)CN3C(=O)CNC(=O)[C@H](Cc3ccc(C(=O)O)cc3)NC(=O)[C@H](Cc3c[nH]c4ccccc34)NC2=O)cc1` [Example 158] (cyclo([AEF](Ac)W[Phe(4-COOH)]G[Pro(4R-NH2)][Trp(βS-Me,4-F)]D[dNMeA]G[Bip(4'-COOH)]KL[dA][h3Pal(5-CN)])): the IC50 is 0.0257 nM.

As for `CC(=O)NCCOc1ccc(C[C@@H]2NC(=O)[C@H](CCc3ccc(O)cc3)NC(=O)[C@@H](C)NC(=O)[C@H](CC(C)C)NC(=O)[C@H](CCCCN)NC(=O)[C@H](Cc3ccc(-c4ccc(C(=O)O)cc4)cc3)NC(=O)CNC(=O)[C@@H](C)N(C)C(=O)[C@H](CC(=O)O)NC(=O)[C@H]([C@@H](C)c3c[nH]c4cccc(F)c34)NC(=O)[C@@H]3C[C@@H](N)CN3C(=O)CNC(=O)[C@H](Cc3ccc(C(=O)O)cc3)NC(=O)[C@H](Cc3c[nH]c4ccccc34)NC2=O)cc1` [Example 159] (cyclo([AEF](Ac)W[Phe(4-COOH)]G[Pro(4R-NH2)][Trp(βS-Me,4-F)]D[dNMeA]G[Bip(4'-COOH)]KL[dA][hTyr])), the half-maximal inhibitory concentration (IC50) was found to be 0.118 nM.

As to `CC(=O)NCCOc1ccc(C[C@@H]2NC(=O)[C@H](CCc3ccc(O)cc3)NC(=O)[C@@H](CCN)NC(=O)[C@H](CC(C)C)NC(=O)[C@H](CCCCN)NC(=O)[C@H](Cc3ccc(-c4ccc(C(=O)O)cc4)cc3)NC(=O)CNC(=O)[C@@H](C)N(C)C(=O)[C@H](CC(=O)O)NC(=O)[C@H]([C@@H](C)c3c[nH]c4cccc(F)c34)NC(=O)[C@@H]3C[C@@H](N)CN3C(=O)CNC(=O)[C@H](Cc3ccc(C(=O)O)cc3)NC(=O)[C@H](Cc3c[nH]c4ccccc34)NC2=O)cc1` [Example 160] (cyclo([AEF](Ac)W[Phe(4-COOH)]G[Pro(4R-NH2)][Trp(βS-Me,4-F)]D[dNMeA]G[Bip(4'-COOH)]KL[dDab][hTyr])), the IC50 is 0.522 nM.

As for `CC(=O)NCCOc1ccc(C[C@@H]2NC(=O)[C@H](CCc3ccc(O)cc3)NC(=O)[C@@H](CO)NC(=O)[C@H](CC(C)C)NC(=O)[C@H](CCCCN)NC(=O)[C@H](Cc3ccc(-c4ccc(C(=O)O)cc4)cc3)NC(=O)CNC(=O)[C@@H](C)N(C)C(=O)[C@H](CC(=O)O)NC(=O)[C@H]([C@@H](C)c3c[nH]c4cccc(F)c34)NC(=O)[C@@H]3C[C@@H](N)CN3C(=O)CNC(=O)[C@H](Cc3ccc(C(=O)O)cc3)NC(=O)[C@H](Cc3c[nH]c4ccccc34)NC2=O)cc1` [Example 161] (cyclo([AEF](Ac)W[Phe(4-COOH)]G[Pro(4R-NH2)][Trp(βS-Me,4-F)]D[dNMeA]G[Bip(4'-COOH)]KL[dS][hTyr])), the IC50 came to 0.483 nM.

With `CC(=O)NCCOc1ccc(C[C@@H]2NC(=O)CNC(=O)[C@@H](C)NC(=O)[C@H](CCN3CCOCC3)NC(=O)[C@H](Cc3c[nH]c4ccccc34)NC(=O)[C@H](Cc3ccc(-c4ccc(C(=O)O)cc4)cc3)NC(=O)CNC(=O)[C@@H](C)N(C)C(=O)[C@H](CC(=O)O)NC(=O)[C@H]([C@@H](C)c3c[nH]c4cccc(F)c34)NC(=O)[C@@H]3C[C@@H](N)CN3C(=O)CNC(=O)[C@H](Cc3ccc(C(=O)O)cc3)NC(=O)[C@H](Cc3c[nH]c4ccccc34)NC2=O)cc1` [Example 162] (cyclo([AEF](Ac)W[Phe(4-COOH)]G[Pro(4R-NH2)][Trp(βS-Me,4-F)]D[dNMeA]G[Bip(4'-COOH)]W[X7][dA]G)), the IC50 came to 0.749 nM.

Take `CC(=O)NCCOc1ccc(C[C@@H]2NC(=O)[C@H](CCc3ccccc3)NC(=O)[C@@H](C)NC(=O)[C@H](CCN)NC(=O)[C@H](Cc3c[nH]c4ccccc34)NC(=O)[C@H](Cc3ccc(-c4ccc(C(=O)O)cc4)cc3)NC(=O)CNC(=O)[C@@H](C)N(C)C(=O)[C@H](CC(=O)O)NC(=O)[C@H]([C@@H](C)c3c[nH]c4cccc(F)c34)NC(=O)[C@@H]3C[C@@H](N)CN3C(=O)CNC(=O)[C@H](Cc3ccc(C(=O)O)cc3)NC(=O)[C@H](Cc3c[nH]c4ccccc34)NC2=O)cc1` [Example 163] (cyclo([AEF](Ac)W[Phe(4-COOH)]G[Pro(4R-NH2)][Trp(βS-Me,4-F)]D[dNMeA]G[Bip(4'-COOH)]W[Dab][dA][hPhe])): the IC50 was determined as 0.156 nM.

These data come from patent US20230406885A1, “CYCLIC PEPTIDES FOR TRAPPING INTERLEUKIN-1 BETA” (MERCK SHARP & DOHME LLC, priority 2022, published 2023).
